Laboratory results: ChEMBL document CHEMBL4507275, “Data for DCP probe BI-2545” (2021)

Experiments:
[1] = target: Histamine H1 receptor (Homo sapiens) (UniProt P35367); conditions: Compound concentration 10.0 uM
[2] = target: Interleukin-1 receptor-associated kinase 3 (Homo sapiens) (UniProt Q9Y616); conditions: Compound concentration 1000.0 nM
[3] = target: Mitogen-activated protein kinase kinase kinase 13 (Homo sapiens) (UniProt O43283); conditions: Compound concentration 1000.0 nM
[4] = target: Bone morphogenetic protein receptor type-2 (Homo sapiens) (UniProt Q13873); conditions: Compound concentration 1000.0 nM
[5] = target: Cyclin-dependent kinase 13 (Homo sapiens) (UniProt Q14004); conditions: Compound concentration 1000.0 nM
[6] = target: Tyrosine-protein kinase HCK (Homo sapiens) (UniProt P08631); conditions: Compound concentration 1000.0 nM
[7] = target: Mitogen-activated protein kinase 3 (Homo sapiens) (UniProt P27361); conditions: Compound concentration 1000.0 nM
[8] = target: Fibroblast growth factor receptor 4 (Homo sapiens) (UniProt P22455); conditions: Compound concentration 1000.0 nM
[9] = test system: Receptor-type tyrosine-protein kinase FLT3 (Homo sapiens), P36888 [UNDEFINED MUTATION]; conditions: Compound concentration 1000.0 nM
[10] = target: Alpha-2B adrenergic receptor (Homo sapiens) (UniProt P18089); conditions: Compound concentration 10.0 uM
[11] = target: Calcium/calmodulin-dependent protein kinase type II subunit beta (Homo sapiens) (UniProt Q13554); conditions: Compound concentration 1000.0 nM
[12] = target: Tyrosine-protein kinase ITK/TSK (Homo sapiens) (UniProt Q08881); conditions: Compound concentration 1000.0 nM
[13] = target: Ephrin type-A receptor 4 (Homo sapiens) (UniProt P54764); conditions: Compound concentration 1000.0 nM
[14] = target: Mitogen-activated protein kinase kinase kinase 10 (Homo sapiens) (UniProt Q02779); conditions: Compound concentration 1000.0 nM
[15] = target: MAP kinase-activated protein kinase 5 (Homo sapiens) (UniProt Q8IW41); conditions: Compound concentration 1000.0 nM
[16] = test system: Epidermal growth factor receptor (Homo sapiens), P00533 [G719C]; conditions: Compound concentration 1000.0 nM
[17] = target: Serine/threonine-protein kinase MRCK gamma (Homo sapiens) (UniProt Q6DT37); conditions: Compound concentration 1000.0 nM
[18] = target: Insulin receptor-related protein (Homo sapiens) (UniProt P14616); conditions: Compound concentration 1000.0 nM
[19] = target: Serine/threonine-protein kinase N2 (Homo sapiens) (UniProt Q16513); conditions: Compound concentration 1000.0 nM
[20] = target: Serine/threonine-protein kinase WNK2 (Homo sapiens) (UniProt Q9Y3S1); conditions: Compound concentration 1000.0 nM
[21] = target: Serine/threonine-protein kinase DCLK2 (Homo sapiens) (UniProt Q8N568); conditions: Compound concentration 1000.0 nM
[22] = target: Serine/threonine-protein kinase RIO3 (Homo sapiens) (UniProt O14730); conditions: Compound concentration 1000.0 nM
[23] = test system: Tyrosine-protein kinase ABL1 (Homo sapiens), P00519 [T315I]; conditions: Compound concentration 1000.0 nM
[24] = target: Tyrosine-protein kinase Lck (Homo sapiens) (UniProt P06239); conditions: Compound concentration 1000.0 nM
[25] = target: Homeodomain-interacting protein kinase 2 (Homo sapiens) (UniProt Q9H2X6); conditions: Compound concentration 1000.0 nM
[26] = target: Testis-specific serine/threonine-protein kinase 1 (Homo sapiens) (UniProt Q9BXA7); conditions: Compound concentration 1000.0 nM
[27] = target: Membrane-associated tyrosine- and threonine-specific cdc2-inhibitory kinase (Homo sapiens) (UniProt Q99640); conditions: Compound concentration 1000.0 nM
[28] = target: Mitogen-activated protein kinase 11 (Homo sapiens) (UniProt Q15759); conditions: Compound concentration 1000.0 nM
[29] = target: cAMP-dependent protein kinase catalytic subunit beta (Homo sapiens) (UniProt P22694); conditions: Compound concentration 1000.0 nM
[30] = target: Serine/threonine-protein kinase D2 (Homo sapiens) (UniProt Q9BZL6); conditions: Compound concentration 1000.0 nM
[31] = target: Tyrosine-protein kinase ABL2 (Homo sapiens) (UniProt P42684); conditions: Compound concentration 1000.0 nM
[32] = target: Cyclin-dependent kinase 5 (Homo sapiens) (UniProt Q00535); conditions: Compound concentration 1000.0 nM
[33] = target: Ephrin type-A receptor 8 (Homo sapiens) (UniProt P29322); conditions: Compound concentration 1000.0 nM
[34] = target: Serine/threonine-protein kinase RIO1 (Homo sapiens) (UniProt Q9BRS2); conditions: Compound concentration 1000.0 nM
[35] = test system: Epidermal growth factor receptor (Homo sapiens), P00533 [UNDEFINED MUTATION]; conditions: Compound concentration 1000.0 nM
[36] = target: Protein kinase C eta type (Homo sapiens) (UniProt P24723); conditions: Compound concentration 1000.0 nM
[37] = target: Dual specificity protein kinase CLK4 (Homo sapiens) (UniProt Q9HAZ1); conditions: Compound concentration 1000.0 nM
[38] = target: Serine/threonine-protein kinase 17B (Homo sapiens) (UniProt O94768); conditions: Compound concentration 1000.0 nM
[39] = test system: Epidermal growth factor receptor (Homo sapiens), P00533 [T790M]; conditions: Compound concentration 1000.0 nM
[40] = target: Death-associated protein kinase 3 (Homo sapiens) (UniProt O43293); conditions: Compound concentration 1000.0 nM
[41] = target: Protein kinase C delta type (Homo sapiens) (UniProt Q05655); conditions: Compound concentration 1000.0 nM
[42] = target: Phosphatidylinositol 4-kinase beta (Homo sapiens) (UniProt Q9UBF8); conditions: Compound concentration 1000.0 nM
[43] = target: Receptor-interacting serine/threonine-protein kinase 1 (Homo sapiens) (UniProt Q13546); conditions: Compound concentration 1000.0 nM
[44] = target: Aurora kinase A (Homo sapiens) (UniProt O14965); conditions: Compound concentration 1000.0 nM
[45] = target: Mu-type opioid receptor (Homo sapiens) (UniProt P35372); conditions: Compound concentration 10.0 uM

Protein kinase C eta type (Homo sapiens), sequence (P24723 whole entry): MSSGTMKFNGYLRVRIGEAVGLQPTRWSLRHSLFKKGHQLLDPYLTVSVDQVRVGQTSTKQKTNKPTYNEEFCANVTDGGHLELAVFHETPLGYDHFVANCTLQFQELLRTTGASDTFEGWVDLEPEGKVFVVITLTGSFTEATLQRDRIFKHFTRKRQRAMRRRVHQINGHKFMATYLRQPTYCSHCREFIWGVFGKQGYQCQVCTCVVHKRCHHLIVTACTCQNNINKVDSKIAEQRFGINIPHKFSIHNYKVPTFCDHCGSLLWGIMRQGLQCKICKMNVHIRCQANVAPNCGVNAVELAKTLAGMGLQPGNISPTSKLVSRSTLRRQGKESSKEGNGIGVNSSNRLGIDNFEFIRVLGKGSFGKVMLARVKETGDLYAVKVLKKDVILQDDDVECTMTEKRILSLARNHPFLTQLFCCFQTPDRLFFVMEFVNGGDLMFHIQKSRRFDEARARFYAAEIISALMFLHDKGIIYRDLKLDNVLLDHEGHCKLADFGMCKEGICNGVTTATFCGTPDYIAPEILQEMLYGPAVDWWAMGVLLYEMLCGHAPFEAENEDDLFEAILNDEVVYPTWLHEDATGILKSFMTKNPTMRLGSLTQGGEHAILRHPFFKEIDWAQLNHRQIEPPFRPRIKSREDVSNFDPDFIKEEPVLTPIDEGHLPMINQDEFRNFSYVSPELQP
Serine/threonine-protein kinase D2 (Homo sapiens), sequence (Q9BZL6 whole entry): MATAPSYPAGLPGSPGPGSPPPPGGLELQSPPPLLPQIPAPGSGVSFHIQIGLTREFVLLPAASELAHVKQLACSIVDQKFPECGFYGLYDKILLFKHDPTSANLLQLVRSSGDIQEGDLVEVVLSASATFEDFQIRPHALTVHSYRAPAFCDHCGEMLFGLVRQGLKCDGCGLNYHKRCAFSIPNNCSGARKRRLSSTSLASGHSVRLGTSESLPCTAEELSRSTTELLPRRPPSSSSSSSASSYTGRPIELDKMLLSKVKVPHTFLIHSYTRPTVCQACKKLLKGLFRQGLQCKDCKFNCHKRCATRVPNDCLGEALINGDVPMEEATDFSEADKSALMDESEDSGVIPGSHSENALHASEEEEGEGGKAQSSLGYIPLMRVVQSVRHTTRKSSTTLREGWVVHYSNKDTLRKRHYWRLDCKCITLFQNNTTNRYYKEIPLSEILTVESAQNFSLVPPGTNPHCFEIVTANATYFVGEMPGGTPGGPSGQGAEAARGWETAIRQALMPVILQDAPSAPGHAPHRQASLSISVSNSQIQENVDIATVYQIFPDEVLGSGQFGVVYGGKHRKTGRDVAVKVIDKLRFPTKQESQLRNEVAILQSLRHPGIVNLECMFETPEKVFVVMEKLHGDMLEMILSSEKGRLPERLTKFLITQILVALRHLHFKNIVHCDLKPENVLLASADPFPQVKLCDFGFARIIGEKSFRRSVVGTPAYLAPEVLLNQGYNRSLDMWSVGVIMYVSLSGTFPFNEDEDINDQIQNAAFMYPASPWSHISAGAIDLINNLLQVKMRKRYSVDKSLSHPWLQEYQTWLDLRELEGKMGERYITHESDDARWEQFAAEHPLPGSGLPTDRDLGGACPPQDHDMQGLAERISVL
Mitogen-activated protein kinase 11 (Homo sapiens), sequence (Q15759 whole entry): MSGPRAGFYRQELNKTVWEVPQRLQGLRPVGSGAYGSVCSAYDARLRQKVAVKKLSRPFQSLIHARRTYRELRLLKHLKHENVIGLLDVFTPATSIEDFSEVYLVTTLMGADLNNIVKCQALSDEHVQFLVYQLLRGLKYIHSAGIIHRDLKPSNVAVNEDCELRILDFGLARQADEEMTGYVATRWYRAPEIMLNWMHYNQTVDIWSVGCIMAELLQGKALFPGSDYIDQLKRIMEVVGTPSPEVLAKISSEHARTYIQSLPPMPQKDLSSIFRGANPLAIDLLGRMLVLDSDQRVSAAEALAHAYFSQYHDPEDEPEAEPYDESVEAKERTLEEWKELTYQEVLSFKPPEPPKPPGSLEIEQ
Histamine H1 receptor (Homo sapiens), sequence (P35367 whole entry): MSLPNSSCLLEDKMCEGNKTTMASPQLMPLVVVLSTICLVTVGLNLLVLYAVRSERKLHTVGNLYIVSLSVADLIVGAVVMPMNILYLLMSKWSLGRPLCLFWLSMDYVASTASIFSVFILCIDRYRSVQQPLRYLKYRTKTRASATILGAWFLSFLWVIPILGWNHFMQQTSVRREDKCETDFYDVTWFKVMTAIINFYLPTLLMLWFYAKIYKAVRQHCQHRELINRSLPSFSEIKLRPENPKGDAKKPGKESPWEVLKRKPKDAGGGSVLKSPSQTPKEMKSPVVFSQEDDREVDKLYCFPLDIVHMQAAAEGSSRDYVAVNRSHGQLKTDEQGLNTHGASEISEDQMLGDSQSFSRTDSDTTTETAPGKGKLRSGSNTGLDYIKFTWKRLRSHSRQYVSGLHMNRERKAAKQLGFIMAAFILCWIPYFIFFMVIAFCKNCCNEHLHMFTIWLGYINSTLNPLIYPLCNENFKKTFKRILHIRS
Receptor-type tyrosine-protein kinase FLT3 (Homo sapiens), P36888 [UNDEFINED MUTATION], sequence (P36888 whole entry, looked up, change not shown): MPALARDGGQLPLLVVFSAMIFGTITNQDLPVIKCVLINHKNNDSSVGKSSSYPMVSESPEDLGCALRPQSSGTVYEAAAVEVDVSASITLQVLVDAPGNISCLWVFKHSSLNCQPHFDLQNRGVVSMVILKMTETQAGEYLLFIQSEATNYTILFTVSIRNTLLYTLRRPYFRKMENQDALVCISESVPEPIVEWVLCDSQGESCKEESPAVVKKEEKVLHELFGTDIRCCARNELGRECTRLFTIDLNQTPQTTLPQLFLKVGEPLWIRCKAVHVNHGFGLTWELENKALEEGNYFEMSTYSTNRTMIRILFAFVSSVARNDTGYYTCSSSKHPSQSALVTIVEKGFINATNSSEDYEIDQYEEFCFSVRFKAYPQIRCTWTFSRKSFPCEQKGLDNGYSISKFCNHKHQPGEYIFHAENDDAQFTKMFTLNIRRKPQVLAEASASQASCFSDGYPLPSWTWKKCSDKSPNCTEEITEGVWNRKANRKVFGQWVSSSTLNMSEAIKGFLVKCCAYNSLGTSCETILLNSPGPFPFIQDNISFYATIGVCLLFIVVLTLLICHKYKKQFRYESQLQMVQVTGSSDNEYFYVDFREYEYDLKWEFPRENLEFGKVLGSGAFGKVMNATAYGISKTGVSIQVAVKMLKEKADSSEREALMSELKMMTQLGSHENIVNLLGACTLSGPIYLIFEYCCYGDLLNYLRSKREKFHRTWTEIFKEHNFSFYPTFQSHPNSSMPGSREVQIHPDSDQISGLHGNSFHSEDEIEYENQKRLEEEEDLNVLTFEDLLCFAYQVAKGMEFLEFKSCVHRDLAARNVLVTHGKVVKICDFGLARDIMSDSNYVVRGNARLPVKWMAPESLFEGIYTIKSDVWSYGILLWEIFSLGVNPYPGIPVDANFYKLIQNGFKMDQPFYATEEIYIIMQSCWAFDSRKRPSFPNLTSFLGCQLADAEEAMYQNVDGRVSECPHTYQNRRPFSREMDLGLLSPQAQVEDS
Bone morphogenetic protein receptor type-2 (Homo sapiens), sequence (Q13873 whole entry): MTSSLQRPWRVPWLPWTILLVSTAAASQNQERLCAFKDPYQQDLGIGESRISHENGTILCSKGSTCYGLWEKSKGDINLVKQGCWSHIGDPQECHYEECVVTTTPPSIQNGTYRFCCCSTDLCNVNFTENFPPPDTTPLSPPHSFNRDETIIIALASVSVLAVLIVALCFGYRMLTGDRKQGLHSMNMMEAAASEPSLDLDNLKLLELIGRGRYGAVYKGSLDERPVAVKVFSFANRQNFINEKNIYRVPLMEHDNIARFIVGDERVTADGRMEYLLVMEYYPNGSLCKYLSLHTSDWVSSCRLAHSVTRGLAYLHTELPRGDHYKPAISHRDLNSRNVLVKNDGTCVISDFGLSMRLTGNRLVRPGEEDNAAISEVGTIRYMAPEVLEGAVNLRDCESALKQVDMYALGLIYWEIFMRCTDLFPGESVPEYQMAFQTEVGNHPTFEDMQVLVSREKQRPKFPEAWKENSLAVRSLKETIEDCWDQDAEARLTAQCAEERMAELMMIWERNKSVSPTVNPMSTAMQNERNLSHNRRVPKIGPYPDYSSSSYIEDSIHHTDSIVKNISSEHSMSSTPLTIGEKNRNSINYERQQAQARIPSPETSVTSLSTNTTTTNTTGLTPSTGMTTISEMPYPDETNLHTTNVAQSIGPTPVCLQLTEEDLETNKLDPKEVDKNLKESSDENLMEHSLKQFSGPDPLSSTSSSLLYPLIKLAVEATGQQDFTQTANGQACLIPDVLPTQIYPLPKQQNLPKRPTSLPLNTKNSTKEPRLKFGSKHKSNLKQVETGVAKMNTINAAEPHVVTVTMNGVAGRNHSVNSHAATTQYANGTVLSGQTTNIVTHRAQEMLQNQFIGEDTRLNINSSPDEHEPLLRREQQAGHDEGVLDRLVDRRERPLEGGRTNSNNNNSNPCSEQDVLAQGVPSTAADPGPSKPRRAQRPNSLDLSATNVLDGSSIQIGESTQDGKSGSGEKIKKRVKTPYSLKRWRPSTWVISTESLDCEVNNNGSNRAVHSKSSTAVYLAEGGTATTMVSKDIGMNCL
Serine/threonine-protein kinase 17B (Homo sapiens), sequence (O94768 whole entry): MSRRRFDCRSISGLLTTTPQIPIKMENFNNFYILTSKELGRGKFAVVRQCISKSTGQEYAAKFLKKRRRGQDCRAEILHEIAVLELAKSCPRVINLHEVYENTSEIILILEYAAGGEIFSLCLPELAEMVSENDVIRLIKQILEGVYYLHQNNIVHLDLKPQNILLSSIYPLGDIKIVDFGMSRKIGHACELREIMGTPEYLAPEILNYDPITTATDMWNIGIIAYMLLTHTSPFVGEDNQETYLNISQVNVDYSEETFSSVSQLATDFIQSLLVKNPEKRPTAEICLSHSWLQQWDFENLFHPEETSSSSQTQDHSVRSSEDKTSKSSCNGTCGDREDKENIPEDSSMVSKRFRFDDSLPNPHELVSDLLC

O=C(NC[C@@H]1[C@H]2CN(C(=O)OCc3cc(C(F)(F)F)cc(C(F)(F)F)c3)C[C@@H]12)c1ccc2[nH]nnc2c1 [BI 2545]
inactive: inhibition [1] 12.8% | residual activity [2] 84% | residual activity [3] 86% | residual activity [4] 90% | residual activity [5] 85% | residual activity [6] 100% | residual activity [7] 100% | residual activity [8] 82% | residual activity [9] 85% | inhibition [10] 25.2% | residual activity [11] 100% | residual activity [12] 100% | residual activity [13] 82% | residual activity [14] 83% | residual activity [15] 86% | residual activity [16] 100% | residual activity [17] 90% | residual activity [18] 83% | residual activity [19] 93% | residual activity [20] 84% | residual activity [21] 100% | residual activity [22] 94% | residual activity [23] 82% | residual activity [24] 100% | residual activity [25] 100% | residual activity [26] 100% | residual activity [27] 100% | residual activity [28] 100% | residual activity [29] 100% | residual activity [30] 85% | residual activity [31] 98% | residual activity [32] 100% | residual activity [33] 100% | residual activity [34] 69% | residual activity [35] 72% | residual activity [36] 100% | residual activity [37] 98% | residual activity [38] 91% | residual activity [39] 78% | residual activity [40] 94% | residual activity [41] 93% | residual activity [42] 100% | residual activity [43] 89% | residual activity [44] 93% | inhibition [45] 43%

Cc1nccc(COC(=O)N2C[C@@H]3[C@@H](CNC(=O)c4ccc5[nH]nnc5c4)[C@@H]3C2)n1 [BI 3017]
inactive: inhibition [1] 18.1% | residual activity [2] 100% | residual activity [3] 65% | residual activity [4] 81% | residual activity [5] 82% | residual activity [6] 99% | residual activity [7] 92% | residual activity [8] 81% | residual activity [9] 100% | inhibition [10] 1.15% | residual activity [11] 90% | residual activity [12] 100% | residual activity [13] 98% | residual activity [14] 85% | residual activity [15] 97% | residual activity [16] 100% | residual activity [17] 92% | residual activity [18] 100% | residual activity [19] 100% | residual activity [20] 79% | residual activity [21] 100% | residual activity [22] 100% | residual activity [23] 90% | residual activity [24] 94% | residual activity [25] 81% | residual activity [26] 91% | residual activity [27] 100% | residual activity [28] 94% | residual activity [29] 98% | residual activity [30] 92% | residual activity [31] 90% | residual activity [32] 100% | residual activity [33] 100% | residual activity [34] 100% | residual activity [35] 100% | residual activity [36] 98% | residual activity [37] 97% | residual activity [38] 85% | residual activity [39] 91% | residual activity [40] 92% | residual activity [41] 95% | residual activity [42] 97% | residual activity [43] 86% | residual activity [44] 91% | inhibition [45] 12.1%
